Measured values reported in patent publication US12509446B2, “FYN and VEGFR2 kinase inhibitors” (ROTTAPHARM BIOTECH S.R.L., priority 2019, dated 2025).
Read-outs that look alike come from different tables or passages of the source.

Columns and labels:
NF-kB = experiment: Gene reporter (GR) assay, NF-kB activation after TNFα in JB6 Cl 41-5a (P+) cells; type: cell-based, murine; set-up: key to Gene reporter (GR) inhibition, no effect: ne: no effect; settings: for inhibition at 10 µM / inhibition at 3 µM: read-out: Gene reporter (GR) inhibition % effect at max concentration; for IC50: TNFα 2 ng/ml, non toxic concentrations, read-out: Gene reporter (GR) inhibition IC50
Description: To determine if the compounds of the invention were active also in a cellular model, a gene reporter assay was established in a cell line (JB6 Cl 41-5a (P+)) know to activate Fyn kinase via an inflammatory stimuli (TNFα). GR assay measures the activation of the nuclear transcription factor NF-kB, situated down-stream the Fyn activation pathway. Products active in this analysis has to penetrate in the cell and inhibit the activation pathway of NF-kB.
The murine epithelial cell line JB6 Cl 41-5a (P+) (ATCC® Cat. #CRL-2010) was stably transfected with the pGL4.32[luc2P/NFkB-RE/Hygro] vector (Promega). Clonal selection was achieved by limiting with 80 μg/ml Hygromycin B. The clones were tested for their response to TNFα stimulus.
JB6(P+) NFkB-RE-luc2P transfected cells were used for the analysis of NF-kB activity modulation, after TNFα stimulation, by Fyn-inhibitors.
Cells were pre-treated with the different compounds for 1 h and then stimulated with 2 ng/ml TNFα for 4 h. Each tested condition was analyzed in quadruplicate.
The luciferase analysis was performed with ONE-Glo™+ToxLuciferase Reporter and Cell Viability Assay kit (Promega).

Fyn = Fyn (Homo sapiens (Human), UniProt P06241); experiment: Z′-LYTE in vitro Fyn kinase activity assay; type: biochemical; settings: ATP 50 μM; read-out: FYN KINASE INHIBITION IC50
Experimental: The Fyn kinase inhibitory activity of representative examples of compounds of Formula (1) was evaluated by Z′-LYTE™ Kinase Assay Platform (Invitrogen). Compounds were evaluated towards active Fyn (full length active, molecular weight 87.1 kDa; Invitrogen). […] Samples representing the 0% inhibition (or total enzymatic activity) were in the presence of compound diluent (1% DMSO final in Reaction Buffer 50 mMHepes, 10 mM MgCl2, 1 mM EGTA, 0.01% Brij-35, pH 7.5). The kinase reaction was carried out in a total volume of 10 μl, for 60 minutes at 25° C. The 0% Phosphorylation (i.e. no ATP) and 100% Phosphorylation Assay Controls, included in each plate, allowed to calculate the percent phosphorylation achieved in the specific reaction well. Results are expressed as percentage of inhibition and the IC50 values were calculated by non-linear curve fitting using GraphPad™ Prism software (version 6 for Windows).

VEGFR2 = VEGFR2 (Homo sapiens (Human), UniProt P35968); experiment: In vitro VEGFR2 kinase activity assay (Eurofins Cerep); type: biochemical; settings: read-out: VEGFR2 KINASE INHIBITION IC50
Experimental: The VEGFR2 kinase inhibitory activity of representative examples of compounds of Formula (I) assays was evaluated in Eurofins Cerep (France). The concentration range of the inhibitors under investigation was from 10^−8 M up to 10^−5 M final concentration. Some compounds were re-tested in a concentration-range starting from 10^−9 M. The results are expressed as a percent of control activity (in the absence of test compound) and the IC50 values were determined by non-linear regression analysis of the inhibition/concentration curves generated with mean replicate values.

Sequence of Fyn (P06241 whole entry): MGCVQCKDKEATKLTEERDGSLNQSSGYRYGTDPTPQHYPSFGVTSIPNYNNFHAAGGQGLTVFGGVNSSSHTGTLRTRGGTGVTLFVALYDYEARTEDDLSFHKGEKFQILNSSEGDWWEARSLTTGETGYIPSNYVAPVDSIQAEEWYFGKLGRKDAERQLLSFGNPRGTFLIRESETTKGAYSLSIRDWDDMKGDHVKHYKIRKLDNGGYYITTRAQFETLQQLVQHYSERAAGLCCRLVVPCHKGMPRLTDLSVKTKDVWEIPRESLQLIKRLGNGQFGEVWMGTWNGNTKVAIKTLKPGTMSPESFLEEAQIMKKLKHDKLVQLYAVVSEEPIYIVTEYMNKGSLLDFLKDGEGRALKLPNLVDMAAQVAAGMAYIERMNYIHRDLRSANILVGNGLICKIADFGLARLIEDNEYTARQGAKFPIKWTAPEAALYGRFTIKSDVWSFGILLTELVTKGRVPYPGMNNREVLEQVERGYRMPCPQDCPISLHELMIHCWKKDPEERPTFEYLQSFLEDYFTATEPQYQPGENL
Sequence of VEGFR2 (P35968 20-1356): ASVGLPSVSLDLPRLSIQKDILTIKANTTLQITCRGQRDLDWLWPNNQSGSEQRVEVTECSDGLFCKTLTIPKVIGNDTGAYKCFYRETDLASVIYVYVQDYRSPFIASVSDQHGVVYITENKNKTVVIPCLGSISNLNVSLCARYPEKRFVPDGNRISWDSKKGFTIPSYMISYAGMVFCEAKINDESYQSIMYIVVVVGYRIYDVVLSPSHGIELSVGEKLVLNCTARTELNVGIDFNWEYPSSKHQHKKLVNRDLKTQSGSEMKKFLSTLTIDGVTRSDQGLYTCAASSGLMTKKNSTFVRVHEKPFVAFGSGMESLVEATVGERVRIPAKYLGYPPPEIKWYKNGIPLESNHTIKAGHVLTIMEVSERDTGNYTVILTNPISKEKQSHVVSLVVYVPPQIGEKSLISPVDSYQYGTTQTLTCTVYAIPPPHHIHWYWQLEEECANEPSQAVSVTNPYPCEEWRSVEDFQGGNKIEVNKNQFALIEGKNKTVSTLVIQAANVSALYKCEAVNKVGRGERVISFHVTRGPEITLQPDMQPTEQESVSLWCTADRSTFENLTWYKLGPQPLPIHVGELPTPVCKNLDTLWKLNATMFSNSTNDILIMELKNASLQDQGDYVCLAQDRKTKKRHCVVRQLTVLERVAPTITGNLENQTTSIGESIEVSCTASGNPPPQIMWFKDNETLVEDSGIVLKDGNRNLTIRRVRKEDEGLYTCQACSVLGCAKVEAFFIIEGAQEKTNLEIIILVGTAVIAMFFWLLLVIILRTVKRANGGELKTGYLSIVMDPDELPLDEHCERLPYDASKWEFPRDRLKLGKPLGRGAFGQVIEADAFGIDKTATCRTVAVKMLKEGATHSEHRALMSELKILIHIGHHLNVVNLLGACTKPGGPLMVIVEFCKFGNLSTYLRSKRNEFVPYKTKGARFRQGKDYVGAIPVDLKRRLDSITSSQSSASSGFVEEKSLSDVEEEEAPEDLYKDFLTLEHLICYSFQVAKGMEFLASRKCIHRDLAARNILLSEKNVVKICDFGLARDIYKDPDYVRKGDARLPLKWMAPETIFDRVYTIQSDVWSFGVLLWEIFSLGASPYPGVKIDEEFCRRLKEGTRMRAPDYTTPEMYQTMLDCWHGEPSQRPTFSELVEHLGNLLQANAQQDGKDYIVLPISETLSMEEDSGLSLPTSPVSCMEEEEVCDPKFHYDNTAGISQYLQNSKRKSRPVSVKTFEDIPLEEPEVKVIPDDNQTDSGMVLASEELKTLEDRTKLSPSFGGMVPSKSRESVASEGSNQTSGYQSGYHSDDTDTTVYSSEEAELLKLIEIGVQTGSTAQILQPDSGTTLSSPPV

Row | Structure (SMILES) | IC50 (Fyn) [nM] | IC50 (NF-kB; Mus musculus, JB6 Cl 41-5a) [nM] | IC50 (VEGFR2) [nM] | other results
1 | Cc1nc(C#N)cc(Nc2cc(CCc3cc(NC(=O)N4CCC5(CCCC5)CC4)ccc3C)n[nH]2)n1 [Compound 38, N-(3-(2-(5-((6-cyano-2-methylpyrimidin-4-yl)amino)-1H-pyrazol-3-yl)ethyl)-4-methylphenyl)-8-azaspiro [4.5] decane-8-carboxamide] | 2 |  |  | inhibition at 10 µM (NF-kB; Mus musculus, JB6 Cl 41-5a): 25%
2 | O=C(Nc1ccc(Cl)c(CCc2cc(Nc3cnccn3)[nH]n2)c1)c1cccc(C(F)(F)F)c1 [Compound 16, N-(4-chloro-3-(2-(5-(pyrazin-2-ylamino)-1H-pyrazol-3-yl)ethyl)phenyl)-3-(trifluoromethyl)benzamide] | 24 | 321 | < 10 | 
3 | Cc1nc(Nc2cc(CCc3cc(NC(=O)c4cccc(C(F)(F)F)c4)ccc3F)n[nH]2)cc(N2CC(O)C2)n1 [Compound 31, N-(4-fluoro-3-(2-(3-((6-(3-hydroxyazetidin-1-yl)-2-methylpyrimidin-4-yl)amino)-1H-pyrazol-5-yl)ethyl)phenyl)-3-(trifluoromethyl)benzamide] |  |  |  | inhibition at 10 µM (NF-kB; Mus musculus, JB6 Cl 41-5a): 47%
4 | Cc1ccc(NC(=O)NC2CCC(C)(C)CC2)cc1CCc1cc(NC(=O)c2ccc(OC3CN(C(C)C)C3)cc2)[nH]n1 [Compound 23, N-(3-(5-(3-(4,4-dimethylcyclohexyl)ureido)-2-methylphenethyl)-1H-pyrazol-5-yl)-4-((1-isopropylazetidin-3-yl)oxy)benzamide] | 5 | 1440 |  | 
5 | Cc1ccc(NC(=O)NC2CCCC2)cc1CCc1cc(NC(=O)c2ccc(N3CCN(C)CC3)cc2)[nH]n1 [Compound 24, N-(3-(5-(3-cyclopentylureido)-2-methylphenethyl)-1H-pyrazol-5-yl)-4-(4-methylpiperazin-1-yl)benzamide] | 2 | 2330 |  | 
6 | Cc1ccc(NC(=O)c2cccc(C(F)(F)F)c2)cc1CCc1cc(NC(=O)c2ccccn2)[nH]n1 [Compound 18, N-(5-(2-methyl-5-(3-(trifluoromethyl)benzamido)phenethyl)-1H-pyrazol-3-yl)picolinamide] | 15 | 974 | 16 | 
7 | Cc1ccc(NC(=O)NC2CCC(C)(C)CC2)cc1CCc1cc(NC(=O)c2ccc(C3CCN(C)CC3)cc2)[nH]n1 [Compound 25, N-(3-(5-(3-(4,4-dimethylcyclohexyl)ureido)-2-methylphenethyl)-1H-pyrazol-5-yl)-4-(1-methylpiperidin-4-yl)benzamide] | 3 |  |  | IC50 (NF-kB): 1420 nM
8 | CC(C)Cc1ccc(C(=O)Nc2ccc(F)c(CCc3cc(NC(=O)c4ncccn4)[nH]n3)c2)cn1 [Compound 9, N-(3-(2-fluoro-5-(6-isobutylnicotinamido)phenethyl)-1H-pyrazol-5-yl)pyrimidine-2-carboxamide] | 16 |  | < 10 | inhibition at 10 µM (NF-kB; Mus musculus, JB6 Cl 41-5a): 47%
9 | Cc1nc(Nc2cc(CCc3cc(NC(=O)c4cccc(C(F)(F)F)c4)ccc3F)n[nH]2)cc(N2CCN(CCO)CC2)n1 [Compound 30, N-(4-fluoro-3-(2-(3-((6-(4-(2-hydroxyethyl)piperazin-1-yl)-2-methylpyrimidin-4-yl)amino)-1H-pyrazol-5-yl)ethyl)phenyl)-3-(trifluoromethyl) benzamide] |  |  |  | Gene reporter (GR) inhibition, no effect (NF-kB): ne
10 | CN(C)Cc1ccc(C(=O)Nc2cccc(CCc3cc(NC(=O)c4ccc(N5CCOCC5)cc4)[nH]n3)c2)cc1 [Compound 47, 4-((dimethylamino)methyl)-N-(3-(2-(5-(4-morpholinobenzamido)-1H-pyrazol-3-yl)ethyl)phenyl)benzamide] | 10 |  | 10 | Gene reporter (GR) inhibition, no effect (NF-kB): ne
11 | CCC1(CC)CCN(C(=O)Nc2ccc(C)c(CCc3cc(Nc4nccnc4C)[nH]n3)c2)C1 [Compound 21, 3,3-diethyl-N-(4-methyl-3-(2-(5-((3-methylpyrazin-2-yl)amino)-1H-pyrazol-3-yl)ethyl)phenyl)pyrrolidine-1-carboxamide] | 5 |  |  | inhibition at 3 µM (NF-kB; Mus musculus, JB6 Cl 41-5a): 37%
12 | Cc1nc(Nc2cc(CCc3cc(NC(=O)c4cccc(C(F)(F)F)c4)ccc3F)n[nH]2)cc(N2CC[C@H](N(C)C)C2)n1 [Compound 32, (S)-N-(3-(2-(3-((6-(3-(dimethylamino)pyrrolidin-1-yl)-2-methylpyrimidin-4-yl)amino)-1H-pyrazol-5-yl)ethyl)-4-fluorophenyl)-3-(trifluoromethyl)benzamide] | 9 |  | < 10 | inhibition at 3 µM (NF-kB; Mus musculus, JB6 Cl 41-5a): 29%
13 | Cc1nc(CN2CCCC2)cc(Nc2cc(CCc3cc(NC(=O)c4cccc(C(F)(F)F)c4)ccc3F)[nH]n2)n1 [Compound 28, N-(4-fluoro-3-(2-(3-((2-methyl-6-(pyrrolidin-1-ylmethyl)pyrimidin-4-yl)amino)-1H-pyrazol-5-yl)ethyl)phenyl)-3-(trifluoromethyl)benzamide] | 17 |  | < 10 | 
14 | Cc1nc(CN2C[C@@H](C)O[C@@H](C)C2)cc(Nc2cc(CCc3cc(NC(=O)c4cccc(C(F)(F)F)c4)ccc3F)[nH]n2)n1 [Compound 27, N-(3-(2-(3-((6-(((2S,6R)-2,6-dimethylmorpholino)methyl)-2-methylpyrimidin-4-yl)amino)-1H-pyrazol-5-yl)ethyl)-4-fluorophenyl)-3-(trifluoromethyl)benzamide] | 10 |  | 12 | 
15 | Cc1nc(Nc2cc(CCc3ccc(F)c(NC(=O)c4cccc(C(F)(F)F)c4)c3)n[nH]2)cc(N2CCOCC2)n1 [Compound 43, N-(2-fluoro-5-(2-(5-((2-methyl-6-morpholinopyrimidin-4-yl)amino)-1H-pyrazol-3-yl)ethyl)phenyl)-3-(trifluoromethyl)benzamide] | 19 | 2440 | 10 | 
16 | Cc1ccc(NC(=O)c2ccnc(C(C)(C)C#N)c2)cc1CCc1cc(Nc2ncccc2C)[nH]n1 [Compound 36, 2-(2-cyanopropan-2-yl)-N-(4-methyl-3-(2-(5-((3-methylpyridin-2-yl)amino)-1H-pyrazol-3-yl)ethyl)phenyl)isonicotinamide] | 32 | 494 | < 10 | 
17 | Cc1ccc(NC(=O)c2ccnc(C(C)(C)C#N)c2)cc1CCc1cnc(Nc2cnccn2)s1 [Compound 50, 2-(2-cyanopropan-2-yl)-N-(4-methyl-3-(2-(2-(pyrazin-2-ylamino)thiazol-5-yl)ethyl)phenyl)isonicotinamide] | 8 |  |  | inhibition at 3 µM (NF-kB; Mus musculus, JB6 Cl 41-5a): 86%
18 | Cc1nc(Nc2cc(CCc3cc(NC(=O)c4cccc(C(F)(F)F)c4)ccc3F)[nH]n2)cc(-c2cnn(CCO)c2)n1 [Compound 42, N-(4-fluoro-3-(2-(3-((6-(1-(2-hydroxyethyl)-1H-pyrazol-4-yl)-2-methylpyrimidin-4-yl)amino)-1H-pyrazol-5-yl)ethyl)phenyl)-3-(trifluoromethyl)benzamide] | 13 |  | 20 | inhibition at 10 µM (NF-kB; Mus musculus, JB6 Cl 41-5a): 56%
19 | CCC1(CC)CCN(C(=O)Nc2ccc(C)c(CCc3cc(Nc4cnccn4)[nH]n3)c2)C1 [Compound 22, 3,3-diethyl-N-(4-methyl-3-(2-(5-(pyrazin-2-ylamino)-1H-pyrazol-3-yl)ethyl)phenyl)pyrrolidine-1-carboxamide] | 7 | 1140 |  | 
20 | Cc1ccc(NC(=O)N2CCC3(CCC3)C2)cc1CCc1cc(Nc2nccnc2C)[nH]n1 [Compound 20, N-(4-methyl-3-(2-(5-((3-methylpyrazin-2-yl)amino)-1H-pyrazol-3-yl)ethyl)phenyl)-6-azaspiro[3.4]octane-6-carboxamide] | 18 |  |  | inhibition at 3 µM (NF-kB; Mus musculus, JB6 Cl 41-5a): 45%
21 | O=C(Nc1ccc(F)c(CCc2cc(Nc3cc4c(cn3)CN(CCO)C4)[nH]n2)c1)c1cccc(C(F)(F)F)c1 [Compound 10, N-(4-fluoro-3-(2-(5-((2-(2-hydroxyethyl)-2,3-dihydro-1H-pyrrolo[3,4-c]pyridin-6-yl)amino)-1H-pyrazol-3-yl)ethyl)phenyl)-3-(trifluoromethyl) benzamide] | 4 | 2000 | < 10 | 
